Literature values, collected in patent publication US11564963B2, “Topical compositions, process of large-scale manufacture, and method of use” (Progeneron, LLC, priority 2017, dated 2023).
≈ marks a conversion by molar mass, not a printed value.

Tests used:
[1] = rats
[2] = tested on: Gram-negative bacteria and fungi
[3] = 20° C.

## OCc1ccccc1 [Benzyl Alcohol]
[1]
  LD50: 1.2 gm/kg

## [H]/N=C(\N/C(=N/[H])NCCCCCCNC(=N)NC(=N)Nc1ccc(Cl)cc1)Nc1ccc(Cl)cc1 [Chlorhexidine]
[2]
  concentrations required for Gram-negative bacteria and fungi: 10 to 73 µg/mL

## NC(=O)c1cccnc1 [Niacinamide]
[3]
  solubility in water: 691 mg/mL (≈ 5660 mM)
other
  pKa: about 3.35
